Key:
[1] = target: T1, human MER (528-end) (Homo sapiens, UniProt Q12866); assay: HTRF kinase activity biochemical assay, MER; details: 10 μM ATP, 30 minutes pre-incubation; read-out: HTRF MERTK IC50
T1 construct: human MER (528-end); purchased Camnabio, Japan
T1 sequence (Q12866 528-999 limits assumed): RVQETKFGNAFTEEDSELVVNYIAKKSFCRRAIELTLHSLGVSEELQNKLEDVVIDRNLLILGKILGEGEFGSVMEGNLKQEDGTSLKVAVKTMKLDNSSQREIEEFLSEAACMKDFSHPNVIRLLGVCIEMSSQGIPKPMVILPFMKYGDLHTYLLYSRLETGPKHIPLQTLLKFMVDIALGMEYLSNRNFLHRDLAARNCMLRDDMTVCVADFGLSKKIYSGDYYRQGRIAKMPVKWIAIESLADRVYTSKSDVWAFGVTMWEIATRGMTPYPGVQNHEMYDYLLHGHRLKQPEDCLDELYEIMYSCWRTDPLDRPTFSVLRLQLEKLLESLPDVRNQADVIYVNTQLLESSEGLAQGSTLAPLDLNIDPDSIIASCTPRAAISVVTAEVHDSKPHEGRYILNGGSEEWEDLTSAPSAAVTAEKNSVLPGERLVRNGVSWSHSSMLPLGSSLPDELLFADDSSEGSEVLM

[2] = target: T2, human AXL (473-end) (Homo sapiens, UniProt P30530); assay: HTRF kinase activity biochemical assay, AXL; details: 10 μM ATP, 30 minutes pre-incubation
T2 construct: human AXL (473-end); purchased SignalChem, Canada
T2 sequence (P30530 473-894 limits assumed): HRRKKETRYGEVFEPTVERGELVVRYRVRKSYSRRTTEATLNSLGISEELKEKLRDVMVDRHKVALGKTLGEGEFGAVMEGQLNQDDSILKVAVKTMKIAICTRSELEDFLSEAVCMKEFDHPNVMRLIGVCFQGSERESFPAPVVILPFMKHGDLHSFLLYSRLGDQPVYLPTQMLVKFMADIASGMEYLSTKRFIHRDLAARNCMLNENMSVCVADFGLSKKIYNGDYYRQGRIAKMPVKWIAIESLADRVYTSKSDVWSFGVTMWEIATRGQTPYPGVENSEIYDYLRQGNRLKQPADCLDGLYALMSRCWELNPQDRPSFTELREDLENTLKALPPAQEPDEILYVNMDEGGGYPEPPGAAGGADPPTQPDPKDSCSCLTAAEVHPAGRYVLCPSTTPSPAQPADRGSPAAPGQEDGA

[3] = target: T3, human TYRO3 (455-end) (Homo sapiens, UniProt Q06418); assay: HTRF kinase activity biochemical assay, TYRO3; details: 10 μM ATP, 30 minutes pre-incubation; read-out: HTRF TYRO IC50
T3 construct: TYRO3 (455-end); purchased SignalChem, Canada
T3 sequence (Q06418 455-890 limits assumed): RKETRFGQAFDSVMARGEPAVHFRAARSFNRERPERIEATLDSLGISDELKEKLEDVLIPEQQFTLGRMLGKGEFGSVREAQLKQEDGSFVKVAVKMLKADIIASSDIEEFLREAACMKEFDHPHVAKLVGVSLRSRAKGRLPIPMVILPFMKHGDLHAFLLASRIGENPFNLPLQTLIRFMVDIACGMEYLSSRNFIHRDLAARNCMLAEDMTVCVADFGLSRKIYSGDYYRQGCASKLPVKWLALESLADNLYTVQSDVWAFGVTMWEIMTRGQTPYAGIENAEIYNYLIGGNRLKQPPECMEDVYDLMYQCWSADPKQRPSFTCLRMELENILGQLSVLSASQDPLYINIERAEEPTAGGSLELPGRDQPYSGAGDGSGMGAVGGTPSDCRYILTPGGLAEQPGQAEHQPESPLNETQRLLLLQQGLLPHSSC

Question: Which IC50 [1] does the source give for `COc1c(-c2cnn(C)c2)cnc(N)c1C(=O)N[C@H]1CCC[C@@H]1OCc1ccc(-c2ccc3c(c2)CC[C@@H]3N2CCN(C)CC2)cc1` [Example 157, 2-amino-4-methoxy-N-[(1S,2S)-2-({4-[(1S)-1-(4-methylpiperazin-1-yl)-2,3-dihydro-1H-inden-5-yl]phenyl}methoxy)cyclopentyl]-5-(1-methyl-1H-pyrazol-4-yl)pyridine-3-carboxamide] here?
Answer: Its IC50 is less than 10 nM.

Question: What about the IC50 [2] of the same compound?
Answer: Its IC50 is less than 10 nM.

Question: And the IC50 [3]?
Answer: The IC50 was 100 to 1000 nM.

Question: How did the IC50 [1] turn out when `Cn1cc(-c2cnc(N)c(C(=O)N[C@H]3CCC[C@@H]3OCc3ccc(-c4cnc5c(c4)C(C)(C)CCN5C4CCN(CCO)CC4)cc3)c2)cn1` [Example 158, 2-amino-N-{(1S,2S)-2-[(4-{8-[1-(2-hydroxyethyl)piperidin-4-yl]-5,5-dimethyl-5,6,7,8-tetrahydro-1,8-naphthyridin-3-yl}phenyl)methoxy]cyclopentyl}-5-(1-methyl-1H-pyrazol-4-yl)pyridine-3-carboxamide] was run?
Answer: Its IC50 is less than 10 nM.

Question: What about the IC50 [2] of the same compound?
Answer: Its IC50 is less than 10 nM.

Question: And the IC50 [3]?
Answer: The IC50 was 10 to 100 nM.

Question: Which IC50 [1] does the source give for `Cn1cc(-c2cnc(N)c(C(=O)N[C@H]3CCC[C@@H]3OCc3ccc(-c4cnc5c(c4)CCCN5C4CCN(CCO)CC4)cc3)c2)cn1` [Example 162, 2-amino-N-{(1S,2S)-2-[(4-{8-[1-(2-hydroxyethyl)piperidin-4-yl]-5,6,7,8-tetrahydro-1,8-naphthyridin-3-yl}phenyl)methoxy]cyclopentyl}-5-(1-methyl-1H-pyrazol-4-yl)pyridine-3-carboxamide] here?
Answer: Its IC50 is less than 10 nM.

Question: And the IC50 [2]?
Answer: The IC50 was less than 10 nM.

Question: And the IC50 [3]?
Answer: Its IC50 is 10 to 100 nM.

Question: `CN1CCN([C@H]2CCCc3cc(-c4ccc(CO[C@H]5CCC[C@@H]5NC(=O)c5cc(-c6cccnc6F)cnc5N)cc4)ccc32)CC1` [Example 163, 6-amino-2′-fluoro-N-[(1S,2S)-2-({4-[(5S)-5-(4-methylpiperazin-1-yl)-5,6,7,8-tetrahydronaphthalen-2-yl]phenyl}methoxy)cyclopentyl][3,3′-bipyridine]-5-carboxamide] was tested. Which IC50 [1] did it give?
Answer: The IC50 was less than 10 nM.

Question: What about the IC50 [2] of the same compound?
Answer: The IC50 was less than 10 nM.

Question: And the IC50 [3]?
Answer: The IC50 was 10 to 100 nM.

Question: For `Cn1cc(-c2cnc(N)c(C(=O)N[C@H]3CCC[C@@H]3OCc3ccc(-c4ccc5c(c4)CCC[C@H]5N4CCN(C[C@H](O)CO)CC4)cc3)c2)cn1` [Example 170, 2-amino-N-[(1S,2S)-2-({4-[(5R)-5-{4-[(2S)-2,3-dihydroxypropyl]piperazin-1-yl}-5,6,7,8-tetrahydronaphthalen-2-yl]phenyl}methoxy)cyclopentyl]-5-(1-methyl-1H-pyrazol-4-yl)pyridine-3-carboxamide], which IC50 [1] is on record?
Answer: The IC50 was 10 to 100 nM.

Question: And the IC50 [2]?
Answer: The IC50 was 10 to 100 nM.

Question: And the IC50 [3]?
Answer: The IC50 was greater than 1000 nM.

Question: What does the source list for `Cc1ncc(-c2cnc(N)c(C(=O)N[C@H]3CCC[C@@H]3OCc3ccc(-c4ccc5c(c4)CC[C@@H]5N4CCN(CCO)CC4)cc3)c2)s1` [Example 172, 2-amino-N-{(1S,2S)-2-[(4-{(1S)-1-[4-(2-hydroxyethyl)piperazin-1-yl]-2,3-dihydro-1H-inden-5-yl}phenyl)methoxy]cyclopentyl}-5-(2-methyl-1,3-thiazol-5-yl)pyridine-3-carboxamide]?
Answer: IC50 [1]: < 10 nM; IC50 [2]: < 10 nM; IC50 [3]: 10 to 100 nM

Question: Which results are given for `Nc1ncc(-c2ccns2)cc1C(=O)N[C@H]1CCC[C@@H]1OCc1ccc(-c2ccc3c(c2)CC[C@@H]3N2CCN(CCO)CC2)cc1` [Example 174, 2-amino-N-{(1S,2S)-2-[(4-{(1S)-1-[4-(2-hydroxyethyl)piperazin-1-yl]-2,3-dihydro-1H-inden-5-yl}phenyl)methoxy]cyclopentyl}-5-(1,2-thiazol-5-yl)pyridine-3-carboxamide]?
Answer: IC50 [1]: < 10 nM; IC50 [2]: < 10 nM; IC50 [3]: 10 to 100 nM

Question: For `Cc1cc(-c2cnc(N)c(C(=O)N[C@H]3CCC[C@@H]3OCc3ccc(-c4ccc5c(c4)CC[C@@H]5N4CCN(CCO)CC4)cc3)c2)sn1` [Example 175, 2-amino-N-{(1S,2S)-2-[(4-{(1S)-1-[4-(2-hydroxyethyl)piperazin-1-yl]-2,3-dihydro-1H-inden-5-yl}phenyl)methoxy]cyclopentyl}-5-(3-methyl-1,2-thiazol-5-yl)pyridine-3-carboxamide], which IC50 [1] is on record?
Answer: Its IC50 is less than 10 nM.

Question: And the IC50 [2]?
Answer: The IC50 was less than 10 nM.

Question: What about the IC50 [3] of the same compound?
Answer: The IC50 was 10 to 100 nM.

From patent US20260146035A1, “FUSED BICYCLIC COMPOUNDS AND THEIR USE AS MER AND AXL INHIBITORS” (DONG-A ST CO., LTD., priority 2022, published 2026)
